According to article PMC8292411 (British Journal of Cancer, 2021):
“Also recorded” adds a separate entry of the source. Counter-ions that a name gives are not always drawn. Like-named read-outs stand apart in the source and are kept apart here.

What was measured:
MET = tested on: MET; set-up: method as in PMID 28862760; details: cited from earlier work
[1] = tested on: Asian patients with advanced HCC; assay: Phase 1b dose escalation: DLTs and adverse events
Protocol: This was an open-label, multicentre, integrated, Phase 1b/2 trial conducted in Asian patients with advanced HCC (NCT01988493). […] Phase 1b was conducted at eight sites and Phase 2 at 43 sites in mainland China, South Korea and Taiwan.
Once three patients had completed one cycle at 500 mg, nine further patients were to be enrolled at this dose level to confirm the RP2D. […] The Safety Monitoring Committee (SMC) could also recommend enrolment of additional patients at or above the RP2D.
In Phase 1b, the primary endpoint was the incidence of investigator-assessed DLTs occurring in Cycle 1, as well as the incidence of other AEs (graded according to the National Cancer Institute Common Terminology and Criteria for Adverse Events, v4.0). […] Secondary endpoints in Phase 1b included efficacy measures and pharmacokinetic parameters, such as Cmax and area under the concentration–time curve over the dosing interval at steady state (AUCτ,ss), which were evaluated at Cycle 1, Day 15.

advanced HCC [2] = assay: Phase 1b tumour response per RECIST v1.1; type: in vivo, human; details: for duration of partial response: one patient
Protocol: (§1) In Phase 2, the primary endpoint was independent review committee (IRC)-assessed time to progression (TTP) per Response Evaluation Criteria in Solid Tumors (RECIST) v1.1. Secondary endpoints included investigator-assessed TTP, IRC- and investigator-assessed progression-free survival (PFS), objective response rate (ORR), disease control rate, OS and safety. In both phases, tumour assessments were performed according to RECIST v1.1 based on scans taken at the end of every second cycle until Cycle 13, and every four cycles thereafter.

[3] = Phase 1b pharmacokinetics, Cycle 1 Day 15; type: in vivo, human; details: for AUC / Cmax: human, in vivo, oral, Cycle 1 Day 15, geometric mean
Protocol: Secondary endpoints in Phase 1b included efficacy measures and pharmacokinetic parameters, such as Cmax and area under the concentration–time curve over the dosing interval at steady state (AUCτ,ss), which were evaluated at Cycle 1, Day 15.

[4] = patients with moderate hepatic impairment (Child–Pugh B); cited from earlier work
HCC with MET alterations = tested on: HCC with MET alterations; set-up: method as in PMID 31853265; details: 30 patients with HCC with MET alterations, first-line; cited from earlier work
[5] = tested on: SACT-naive Asian patients with aHCC with MET overexpression; assay: Phase 2 safety (adverse events, NCI-CTCAE v4.0); details: for treatment-related AEs: ALT increased / treatment-related AEs: AST increased / treatment-related AEs: Alopecia / treatment-related AEs: Blood bilirubin increased / treatment-related AEs: Blood creatinine increased / treatment-related AEs: Diarrhoea / treatment-related AEs: Fatigue / treatment-related AEs: Hypertension / treatment-related AEs: Hypoalbuminaemia / treatment-related AEs: Oedema peripheral / treatment-related AEs: Overall / treatment-related AEs: PPES: Phase 2, safety analysis set
Protocol: (§2) Patients in both phases continued to receive allocated therapy until disease progression, intolerable toxicity or withdrawal of consent.
DLTs are defined in Supplementary Table 3.
(§3) In Phase 2, analyses were conducted according to randomised treatment assignment. […] In total, 100 TTP events were required to ensure 80% power (with a two-sided significance level of 10%) for rejecting the null hypothesis of equal treatment effect between treatment arms, assuming a true hazard ratio (HR) of 0.6. […] For the primary and secondary time-to-event endpoints, treatment groups were compared in the mITT population, applying a two-sided log-rank test, stratified by BCLC stage (α = 10%).

advanced HCC [6] = details: Phase 3 Asia-Pacific sorafenib trial; cited from earlier work
advanced HCC [7] = details: Phase 3 SHARP sorafenib trial; cited from earlier work
[8] = tested on: advanced HCC with MET overexpression; assay: Phase 2 randomised efficacy, tepotinib vs sorafenib (TTP, PFS, OS, response; RECIST v1.1); type: in vivo, human; details: Phase 2, mITT
Excerpt: as §2, §1, §3

[9] = Phase 1b, across all dose cohorts
[10] = Phase 1b, 500 mg dose, comparator ref 13

## COc1cc2nccc(Oc3ccc(NC(=O)C4(C(=O)Nc5ccc(F)cc5)CC4)cc3)c2cc1OC [cabozantinib]
MET
  in vitro IC50 for MET inhibition: low nanomolar range

## O=C1NC(=O)[C@@H](c2cn3c4c(cccc24)CCC3)[C@@H]1c1c[nH]c2ccccc12 [tivantinib]
MET; relative to tepotinib, cabozantinib and capmatinib
  affinity for the MET receptor: lower affinity for the receptor

## CN1CCC(COc2cnc(-c3cccc(Cn4nc(-c5cccc(C#N)c5)ccc4=O)c3)nc2)CC1 [Tepotinib, tepotinib hydrochloride hydrate]
[1]; Phase 1b, 300, 500 or 1,000 mg QD, Cycle 1
  dose-limiting toxicities (DLTs): no DLTs occurred; also recorded: No DLTs were observed; also recorded: no DLTs were reported
[1]; [9]
  treatment-related AEs, Grade ≥3: 33.3%
  treatment-related AEs, any grade: 81.5%
[1]; Phase 1b, n = 27
  patients with AEs of any cause: All patients
Advanced HCC [2]; Phase 1b, 300 mg cohort
  best overall response of progressive disease: 85.7%
  best overall response of stable disease: 14.3%
  disease control rate: 14.3%
Advanced HCC [2]; Phase 1b, 500 mg cohort
  best overall response of progressive disease: 35.7%
  best overall response of stable disease: 42.9%
  objective response rate (ORR): 7.1%
  duration of partial response: 19 months
Advanced HCC [2]; Phase 1b, 1,000 mg cohort
  best overall response of progressive disease: 50.0%
  best overall response of stable disease: 33.3%
  objective response rate (ORR): 16.7%
  duration of partial response: 4.4 months
[3]; [10]
  AUCτ as percentage of that observed in the first-in-human trial: 61%
  Cmax as percentage of that observed in the first-in-human trial: 63%
[3]; 1000 mg, Phase 1b, 1,000 mg QD
  AUC: 28600 ng·h/mL
  Cmax: 1370 ng/mL
[3]; Phase 1b, 300 mg QD
  AUC: 11800 ng·h/mL
  Cmax: 585 ng/mL
[3]; Phase 1b, 500 mg QD
  AUC: 16700 ng·h/mL
  Cmax: 815 ng/mL
[4]
  lower AUC from time 0 to infinity versus control subjects without hepatic impairment: 12%
  lower Cmax versus control subjects without hepatic impairment: 29%

## CNC(=O)c1ccc(-c2cnc3ncc(Cc4ccc5ncccc5c4)n3n2)cc1F [capmatinib]
HCC with MET alterations
  ORR: 10%

## CNC(=O)c1cc(Oc2ccc(NC(=O)Nc3ccc(Cl)c(C(F)(F)F)c3)cc2)ccn1 [Sorafenib, sorafenib]
[5]; Phase 2
  aspartate transaminase increase, any cause: 36.4%
  deaths deemed treatment-related: neither were deemed treatment-related
  decreased appetite, any cause: 40.9%
  diarrhoea, any cause: 38.6%
  palmar–plantar erythrodysesthesia, any cause: 61.4%
  patients who died due to AEs while on treatment: Two
  patients with AEs of any cause: 97.7%
  patients with Grade ≥3 AEs of any cause: 70.5%
  permanent treatment discontinuation due to AEs of any cause: 13.6%
[5]; Phase 2, any grade
  treatment-related diarrhoea: 31.8%
  treatment-related palmar–plantar erythrodysesthesia: 61.4%
[5]; Any grade
  treatment-related AEs: ALT increased: 7 (15.9) n (%)
  treatment-related AEs: AST increased: 10 (22.7) n (%)
  treatment-related AEs: Alopecia: 10 (22.7) n (%)
  treatment-related AEs: Blood bilirubin increased: 8 (18.2) n (%)
  treatment-related AEs: Blood creatinine increased: 0 (0.0) n (%)
  treatment-related AEs: Diarrhoea: 14 (31.8) n (%)
  treatment-related AEs: Fatigue: 11 (25.0) n (%)
  treatment-related AEs: Hypertension: 11 (25.0) n (%)
  treatment-related AEs: Hypoalbuminaemia: 2 (4.5) n (%)
  treatment-related AEs: Oedema peripheral: 0 (0.0) n (%)
  treatment-related AEs: Overall: 43 (97.7) n (%)
  treatment-related AEs: PPES: 27 (61.4) n (%)
[5]; Grade ≥ 3
  treatment-related AEs: ALT increased: 0 (0.0) n (%)
  treatment-related AEs: AST increased: 3 (6.8) n (%)
  treatment-related AEs: Alopecia: 0 (0.0) n (%)
  treatment-related AEs: Blood bilirubin increased: 2 (4.5) n (%)
  treatment-related AEs: Blood creatinine increased: 0 (0.0) n (%)
  treatment-related AEs: Diarrhoea: 3 (6.8) n (%)
  treatment-related AEs: Fatigue: 0 (0.0) n (%)
  treatment-related AEs: Hypertension: 6 (13.6) n (%)
  treatment-related AEs: Hypoalbuminaemia: 0 (0.0) n (%)
  treatment-related AEs: Oedema peripheral: 0 (0.0) n (%)
  treatment-related AEs: Overall: 20 (45.5) n (%)
  treatment-related AEs: PPES: 3 (6.8) n (%)
[5]; Phase 2, text
  treatment-related AEs, Grade ≥3, overall: 45.5%
  treatment-related AEs, any grade, overall: 97.7%
Advanced HCC [6]
  median TTP: 2.8 months
Advanced HCC [7]
  median TTP: 5.5 months
[8]
  ORR by IRC: 0%
  median OS: 8.6 months
  median PFS assessed by IRC: 1.4 months
  median investigator-assessed PFS: 2.8 months
  median investigator-assessed TTP: 2.8 months
[8]; IRC
  Best overall response: Complete response: 0 (0.0)
  Best overall response: Non-complete response/non-partial response: 0 (0.0)
  Best overall response: Partial response: 0 (0.0)
  Best overall response: Progressive disease: 25 (67.6)
  Best overall response: Stable disease: 8 (21.6)
  Objective response rate: 0 (0.0) n (%)
  disease control: 21.6%
  disease control rate: 8 (21.6) n (%)
[8]; tepotinib 500 mg QD, sorafenib 400 mg twice daily
  median IRC-assessed time to progression (TTP): 1.4 months
